The source of these data is the NIST ThermoML archive (doi:10.1016/j.jct.2015.09.006).

A short description of this data set: wn = mass fraction of the nth substance listed. The conditions noted are these: 323.15 K, 101.3 kPa, Liquid, Vibrating tube method.

SMILES strings stand for the structures. ± gives the expanded uncertainty stated by the source.

One may read the mass density as mass per unit of volume. Consider `[Ca+2].[Cl-].[Cl-]` [calcium chloride] + O, for which the mass density (w1 = 0.566) was 1575.9 ± 24 kg/m3. `O=[PH2][O-].O=[PH2][O-].[Ca+2]` [calcium hypophosphite] + O: for the setting “w1 = 0.1326”, the mass density is given as 1073.2 ± 24 kg/m3. Consider `O=[PH2][O-].[Na+]` [sodium phosphinate] + O, for which the mass density (w1 = 0.5786) was determined as 1415.2 ± 24 kg/m3.
